Source: ChEMBL document CHEMBL3045112, “In vitro antimicrobial assessment of coumarin-based s-triazinyl piperazines” (2012)
Values after ≈ are worked out from the molar mass of the structure shown.

Tests used:
Type in all cases: functional
[1] = system: Bacillus subtilis; experiment: Antibacterial activity against Bacillus subtilis after 24 hr by disk diffusion test
[2] = system: Staphylococcus aureus; experiment: Antibacterial activity against Staphylococcus aureus after 24 hr by disk diffusion test
[3] = system: Aspergillus niger; experiment: Antifungal activity against Aspergillus niger after 48 hr by agar plate method
[4] = system: Candida albicans; experiment: Antifungal activity against Candida albicans after 48 hr by agar plate method
[5] = system: Escherichia coli; experiment: Antibacterial activity against Escherichia coli after 24 hr by agar plate method
[6] = system: Pseudomonas aeruginosa; experiment: Antibacterial activity against Pseudomonas aeruginosa after 24 hr by agar plate method
[7] = system: Bacillus subtilis; experiment: Antibacterial activity against Bacillus subtilis after 24 hr by agar plate method
[8] = system: Staphylococcus aureus; experiment: Antibacterial activity against Staphylococcus aureus after 24 hr by agar plate method
[9] = system: Aspergillus niger; experiment: Antifungal activity against Aspergillus niger after 48 hr by disk diffusion test
[10] = system: Pseudomonas aeruginosa; experiment: Antibacterial activity against Pseudomonas aeruginosa after 24 hr by disk diffusion test
[11] = system: Candida albicans; experiment: Antifungal activity against Candida albicans after 48 hr by disk diffusion test
[12] = system: Escherichia coli; experiment: Antibacterial activity against Escherichia coli after 24 hr by disk diffusion test

O=c1cc(Oc2nc(Nc3ccccc3)nc(N3CCN(c4ccccc4)CC3)n2)c2ccccc2o1
inhibition zone (IZ) [1]: 17 mm | inhibition zone (IZ) [2]: 17 mm | MIC [3]: 100 µg/mL (≈ 203 µM) | MIC [4]: 100 µg/mL (≈ 203 µM) | MIC [5]: 100 µg/mL (≈ 203 µM) | MIC [6]: 100 µg/mL (≈ 203 µM) | MIC [7]: 100 µg/mL (≈ 203 µM) | MIC [8]: 100 µg/mL (≈ 203 µM) | inhibition zone (IZ) [9]: 15 mm | inhibition zone (IZ) [10]: 15 mm | inhibition zone (IZ) [11]: 16 mm | inhibition zone (IZ) [12]: 16 mm

CC(=O)N1CCN(c2nc(Nc3ccccc3)nc(Oc3cc(=O)oc4ccccc34)n2)CC1
inhibition zone (IZ) [1]: 20 mm | inhibition zone (IZ) [2]: 23 mm | MIC [3]: 100 µg/mL (≈ 218 µM) | MIC [4]: 50 µg/mL (≈ 109 µM) | MIC [5]: 12.5 µg/mL (≈ 27.3 µM) | MIC [6]: 50 µg/mL (≈ 109 µM) | MIC [7]: 100 µg/mL (≈ 218 µM) | MIC [8]: 25 µg/mL (≈ 54.5 µM) | inhibition zone (IZ) [9]: 18 mm | inhibition zone (IZ) [10]: 22 mm | inhibition zone (IZ) [11]: 20 mm | inhibition zone (IZ) [12]: 22 mm

CC(C)N1CCN(c2nc(Nc3ccccc3)nc(Oc3cc(=O)oc4ccccc34)n2)CC1
inhibition zone (IZ) [1]: 18 mm | inhibition zone (IZ) [2]: 20 mm | MIC [3]: 25 µg/mL (≈ 54.5 µM) | MIC [4]: 100 µg/mL (≈ 218 µM) | MIC [5]: 100 µg/mL (≈ 218 µM) | MIC [6]: 100 µg/mL (≈ 218 µM) | MIC [7]: 50 µg/mL (≈ 109 µM) | MIC [8]: 100 µg/mL (≈ 218 µM) | inhibition zone (IZ) [9]: 21 mm | inhibition zone (IZ) [10]: 18 mm | inhibition zone (IZ) [11]: 17 mm | inhibition zone (IZ) [12]: 18 mm

O=c1cc(Oc2nc(Nc3ccccc3)nc(N3CCN(c4ccccn4)CC3)n2)c2ccccc2o1
inhibition zone (IZ) [1]: 21 mm | inhibition zone (IZ) [2]: 23 mm | MIC [3]: 12.5 µg/mL (≈ 25.3 µM) | MIC [4]: 25 µg/mL (≈ 50.7 µM) | MIC [5]: 25 µg/mL (≈ 50.7 µM) | MIC [6]: 50 µg/mL (≈ 101 µM) | MIC [7]: 25 µg/mL (≈ 50.7 µM) | MIC [8]: 12.5 µg/mL (≈ 25.3 µM) | inhibition zone (IZ) [9]: 20 mm | inhibition zone (IZ) [10]: 20 mm | inhibition zone (IZ) [11]: 21 mm | inhibition zone (IZ) [12]: 20 mm

O=c1cc(Oc2nc(Nc3ccccc3)nc(N3CCN(c4ncccn4)CC3)n2)c2ccccc2o1
inhibition zone (IZ) [1]: 22 mm | inhibition zone (IZ) [2]: 23 mm | MIC [3]: 12.5 µg/mL (≈ 25.3 µM) | MIC [4]: 12.5 µg/mL (≈ 25.3 µM) | MIC [5]: 50 µg/mL (≈ 101 µM) | MIC [6]: 50 µg/mL (≈ 101 µM) | MIC [7]: 12.5 µg/mL (≈ 25.3 µM) | MIC [8]: 12.5 µg/mL (≈ 25.3 µM) | inhibition zone (IZ) [9]: 19 mm | inhibition zone (IZ) [10]: 20 mm | inhibition zone (IZ) [11]: 22 mm | inhibition zone (IZ) [12]: 21 mm

Cc1cc(=O)oc2cc(Oc3nc(Nc4ccccc4)nc(N4CCN(C)CC4)n3)ccc12
inhibition zone (IZ) [1]: 21 mm | inhibition zone (IZ) [2]: 19 mm | MIC [3]: 100 µg/mL (≈ 225 µM) | MIC [4]: 100 µg/mL (≈ 225 µM) | MIC [5]: 100 µg/mL (≈ 225 µM) | MIC [6]: 100 µg/mL (≈ 225 µM) | MIC [7]: 100 µg/mL (≈ 225 µM) | MIC [8]: 100 µg/mL (≈ 225 µM) | inhibition zone (IZ) [9]: 16 mm | inhibition zone (IZ) [10]: 20 mm | inhibition zone (IZ) [11]: 20 mm | inhibition zone (IZ) [12]: 16 mm

CCN1CCN(c2nc(Nc3ccccc3)nc(Oc3ccc4c(C)cc(=O)oc4c3)n2)CC1
inhibition zone (IZ) [1]: 21 mm | inhibition zone (IZ) [2]: 17 mm | MIC [3]: 100 µg/mL (≈ 218 µM) | MIC [4]: 100 µg/mL (≈ 218 µM) | MIC [5]: 100 µg/mL (≈ 218 µM) | MIC [6]: 100 µg/mL (≈ 218 µM) | MIC [7]: 50 µg/mL (≈ 109 µM) | MIC [8]: 100 µg/mL (≈ 218 µM) | inhibition zone (IZ) [9]: 20 mm | inhibition zone (IZ) [10]: 21 mm | inhibition zone (IZ) [11]: 20 mm | inhibition zone (IZ) [12]: 16 mm

Cc1cc(=O)oc2cc(Oc3nc(Nc4ccccc4)nc(N4CCN(c5cccc(Cl)c5)CC4)n3)ccc12
inhibition zone (IZ) [1]: 23 mm | inhibition zone (IZ) [2]: 22 mm | MIC [3]: 25 µg/mL (≈ 46.2 µM) | MIC [4]: 12.5 µg/mL (≈ 23.1 µM) | MIC [5]: 25 µg/mL (≈ 46.2 µM) | MIC [6]: 12.5 µg/mL (≈ 23.1 µM) | MIC [7]: 50 µg/mL (≈ 92.4 µM) | MIC [8]: 25 µg/mL (≈ 46.2 µM) | inhibition zone (IZ) [9]: 23 mm | inhibition zone (IZ) [10]: 24 mm | inhibition zone (IZ) [11]: 25 mm | inhibition zone (IZ) [12]: 22 mm

Cc1cc(=O)oc2cc(Oc3nc(Nc4ccccc4)nc(N4CCN(c5cccc(Cl)c5Cl)CC4)n3)ccc12
inhibition zone (IZ) [1]: 25 mm | inhibition zone (IZ) [2]: 24 mm | MIC [3]: 12.5 µg/mL (≈ 21.7 µM) | MIC [4]: 12.5 µg/mL (≈ 21.7 µM) | MIC [5]: 12.5 µg/mL (≈ 21.7 µM) | MIC [6]: 12.5 µg/mL (≈ 21.7 µM) | MIC [7]: 12.5 µg/mL (≈ 21.7 µM) | MIC [8]: 25 µg/mL (≈ 43.4 µM) | inhibition zone (IZ) [9]: 23 mm | inhibition zone (IZ) [10]: 24 mm | inhibition zone (IZ) [11]: 25 mm | inhibition zone (IZ) [12]: 23 mm

Cc1cc(=O)oc2cc(Oc3nc(Nc4ccccc4)nc(N4CCCCC4)n3)ccc12
inhibition zone (IZ) [1]: 19 mm | inhibition zone (IZ) [2]: 21 mm | MIC [3]: 12.5 µg/mL (≈ 29.1 µM) | MIC [4]: 50 µg/mL (≈ 116 µM) | MIC [5]: 25 µg/mL (≈ 58.2 µM) | MIC [6]: 100 µg/mL (≈ 233 µM) | MIC [7]: 100 µg/mL (≈ 233 µM) | MIC [8]: 50 µg/mL (≈ 116 µM) | inhibition zone (IZ) [9]: 22 mm | inhibition zone (IZ) [10]: 21 mm | inhibition zone (IZ) [11]: 22 mm | inhibition zone (IZ) [12]: 22 mm

Cc1cc(=O)oc2cc(Oc3nc(Nc4ccccc4)nc(N4CCOCC4)n3)ccc12
inhibition zone (IZ) [1]: 20 mm | inhibition zone (IZ) [2]: 20 mm | MIC [3]: 50 µg/mL (≈ 116 µM) | MIC [4]: 50 µg/mL (≈ 116 µM) | MIC [5]: 50 µg/mL (≈ 116 µM) | MIC [6]: 100 µg/mL (≈ 232 µM) | MIC [7]: 100 µg/mL (≈ 232 µM) | MIC [8]: 100 µg/mL (≈ 232 µM) | inhibition zone (IZ) [9]: 21 mm | inhibition zone (IZ) [10]: 17 mm | inhibition zone (IZ) [11]: 22 mm | inhibition zone (IZ) [12]: 22 mm

Cc1cc(=O)oc2cc(Oc3nc(Nc4ccccc4)nc(N4CCN(c5ccccc5)CC4)n3)ccc12
inhibition zone (IZ) [1]: 20 mm | inhibition zone (IZ) [2]: 17 mm | MIC [3]: 100 µg/mL (≈ 197 µM) | MIC [4]: 100 µg/mL (≈ 197 µM) | MIC [5]: 100 µg/mL (≈ 197 µM) | MIC [6]: 100 µg/mL (≈ 197 µM) | MIC [7]: 100 µg/mL (≈ 197 µM) | MIC [8]: 100 µg/mL (≈ 197 µM) | inhibition zone (IZ) [9]: 17 mm | inhibition zone (IZ) [10]: 15 mm | inhibition zone (IZ) [11]: 18 mm | inhibition zone (IZ) [12]: 17 mm

CC(=O)N1CCN(c2nc(Nc3ccccc3)nc(Oc3ccc4c(C)cc(=O)oc4c3)n2)CC1
inhibition zone (IZ) [1]: 23 mm | inhibition zone (IZ) [2]: 22 mm | MIC [3]: 50 µg/mL (≈ 106 µM) | MIC [4]: 25 µg/mL (≈ 52.9 µM) | MIC [5]: 12.5 µg/mL (≈ 26.5 µM) | MIC [6]: 25 µg/mL (≈ 52.9 µM) | MIC [7]: 50 µg/mL (≈ 106 µM) | MIC [8]: 25 µg/mL (≈ 52.9 µM) | inhibition zone (IZ) [9]: 21 mm | inhibition zone (IZ) [10]: 23 mm | inhibition zone (IZ) [11]: 25 mm | inhibition zone (IZ) [12]: 23 mm

Cc1cc(=O)oc2cc(Oc3nc(Nc4ccccc4)nc(N4CCN(C(C)C)CC4)n3)ccc12
inhibition zone (IZ) [1]: 18 mm | inhibition zone (IZ) [2]: 19 mm | MIC [3]: 100 µg/mL (≈ 212 µM) | MIC [4]: 100 µg/mL (≈ 212 µM) | MIC [5]: 100 µg/mL (≈ 212 µM) | MIC [6]: 100 µg/mL (≈ 212 µM) | MIC [7]: 100 µg/mL (≈ 212 µM) | MIC [8]: 100 µg/mL (≈ 212 µM) | inhibition zone (IZ) [9]: 19 mm | inhibition zone (IZ) [10]: 18 mm | inhibition zone (IZ) [11]: 19 mm | inhibition zone (IZ) [12]: 18 mm

Cc1cc(=O)oc2cc(Oc3nc(Nc4ccccc4)nc(N4CCN(c5ccccn5)CC4)n3)ccc12
inhibition zone (IZ) [1]: 24 mm | inhibition zone (IZ) [2]: 23 mm | MIC [3]: 12.5 µg/mL (≈ 24.6 µM) | MIC [4]: 25 µg/mL (≈ 49.3 µM) | MIC [5]: 25 µg/mL (≈ 49.3 µM) | MIC [6]: 50 µg/mL (≈ 98.5 µM) | MIC [7]: 12.5 µg/mL (≈ 24.6 µM) | MIC [8]: 12.5 µg/mL (≈ 24.6 µM) | inhibition zone (IZ) [9]: 23 mm | inhibition zone (IZ) [10]: 22 mm | inhibition zone (IZ) [11]: 23 mm | inhibition zone (IZ) [12]: 22 mm

Cc1cc(=O)oc2cc(Oc3nc(Nc4ccccc4)nc(N4CCN(c5ncccn5)CC4)n3)ccc12
inhibition zone (IZ) [1]: 24 mm | inhibition zone (IZ) [2]: 24 mm | MIC [3]: 25 µg/mL (≈ 49.2 µM) | MIC [4]: 25 µg/mL (≈ 49.2 µM) | MIC [5]: 25 µg/mL (≈ 49.2 µM) | MIC [6]: 50 µg/mL (≈ 98.3 µM) | MIC [7]: 12.5 µg/mL (≈ 24.6 µM) | MIC [8]: 6.25 µg/mL (≈ 12.3 µM) | inhibition zone (IZ) [9]: 22 mm | inhibition zone (IZ) [10]: 23 mm | inhibition zone (IZ) [11]: 24 mm | inhibition zone (IZ) [12]: 21 mm
